Assay results taken from ChEMBL document CHEMBL3044741, “Synthesis of novel biologically active methylene derivatives of sydnones” (Med Chem Res, 2013).
Values after ≈ are worked out from the molar mass of the structure shown.

Columns and labels:
Pseudomonas aeruginosa [1] = assay: Antibacterial activity against Pseudomonas aeruginosa MTCC 424 after 24 hrs by broth dilution method; type: functional; details: MTCC 424, 24 h
[2] = Selectivity index, ratio of CC50 for human MT4 cells to IC50 for HIV1 3B; type: functional
Escherichia coli [3] = assay: Antibacterial activity against Escherichia coli MTCC 443 after 24 hrs by broth dilution method; type: functional; details: MTCC 443, 24 h
[4] = Cytotoxicity against human MT4 cells by MTT assay; type: cell-based
[5] = Cytotoxicity against human HEL cells assessed as alteration in cell morphology; type: cell-based
[6] = Selectivity index, ratio of CC50 for human MT4 cells to IC50 for HIV2 ROD; type: functional
Staphylococcus aureus [7] = assay: Antibacterial activity against Staphylococcus aureus MTCC 96 after 24 hrs by broth dilution method; type: functional; details: MTCC 96, 24 h
Aspergillus niger [8] = assay: Antifungal activity against Aspergillus niger MTCC 282 at 250 ug/ml after 74 hrs by Kirby-Bauer method; type: functional; details: MTCC 282, 74 h, read-out: IZ
Candida albicans [9] = assay: Antifungal activity against Candida albicans MTCC 227 at 250 ug/ml after 74 hrs by Kirby-Bauer method; type: functional; details: MTCC 227, 74 h, read-out: IZ
Candida albicans [10] = assay: Antifungal activity against Candida albicans MTCC 227; type: functional
Aspergillus niger [11] = assay: Antifungal activity against Aspergillus niger MTCC 282; type: functional
Aspergillus clavatus [12] = assay: Antifungal activity against Aspergillus clavatus MTCC 1323 at 250 ug/ml after 74 hrs by Kirby-Bauer method; type: functional; details: MTCC 1323, 74 h, read-out: IZ
Streptococcus pyogenes [13] = assay: Antibacterial activity against Streptococcus pyogenes MTCC 442 at 250 ug/ml after 24 hrs by Kirby-Bauer method; type: functional; details: MTCC 442, 24 h, read-out: IZ
Human alphaherpesvirus 3 [14] = assay: Antiviral activity against Varicella-zoster virus Oka expressing thymidine kinase infected in HEL cells assessed as reduction in plaque formation; type: functional, organism-based; details: Human alphaherpesvirus 3, strain Oka vaccine
Staphylococcus aureus [15] = assay: Antibacterial activity against Staphylococcus aureus MTCC 96 at 250 ug/ml after 24 hrs by Kirby-Bauer method; type: functional; details: MTCC 96, 24 h, read-out: IZ
Aspergillus clavatus [16] = assay: Antifungal activity against Aspergillus clavatus MTCC 1323; type: functional
[17] = Cytotoxicity against human HEL cells; type: cell-based
[18] = test system: Human immunodeficiency virus 2; assay: Antiviral activity against HIV2 ROD infected in MT4 cells assessed as inhibition of virus-induced cytopathogenicity by MTT assay; type: functional, organism-based; details: Human immunodeficiency virus 2, ISOLATE ROD
Pseudomonas aeruginosa [19] = assay: Antibacterial activity against Pseudomonas aeruginosa MTCC 424 at 250 ug/ml after 24 hrs by Kirby-Bauer method; type: functional; details: MTCC 424, 24 h, read-out: IZ
[20] = test system: Human immunodeficiency virus 1; assay: Antiviral activity against HIV1 3B infected in MT4 cells assessed as inhibition of virus-induced cytopathogenicity by MTT assay; type: functional, organism-based; details: Human immunodeficiency virus 1, 3B
Cytomegalovirus [21] = assay: Antiviral activity against Cytomegalovirus AD-169 infected in HEL cells assessed as reduction in plaque formation; type: functional, organism-based; details: Human betaherpesvirus 5, AD-169, HEL
Streptococcus pyogenes [22] = assay: Antibacterial activity against Streptococcus pyogenes MTCC 442 after 24 hrs by broth dilution method; type: functional; details: MTCC 442, 24 h
Cytomegalovirus [23] = assay: Antiviral activity against Cytomegalovirus Davis in HEL cells assessed as reduction in plaque formation; type: functional, organism-based; details: Human betaherpesvirus 5, Davis
Human alphaherpesvirus 3 [24] = assay: Antiviral activity against thymidine kinase-deficient Varicella-zoster virus infected in HEL cells assessed as reduction in plaque formation; type: functional, organism-based; details: Human alphaherpesvirus 3, HEL
Escherichia coli [25] = assay: Antibacterial activity against Escherichia coli MTCC 443 at 250 ug/ml after 24 hrs by Kirby-Bauer method; type: functional; details: MTCC 443, 24 h, read-out: IZ

| Structure (SMILES) | MIC (Pseudomonas aeruginosa [1]) [µg/mL] | MIC (Escherichia coli [3]) [µg/mL] | MCC [5] [µg/mL] | MIC (Staphylococcus aureus [7]) [µg/mL] | zone of inhibition at 250 µg/mL (Aspergillus niger [8]) [mm] | zone of inhibition at 250 µg/mL (Candida albicans [9]) [mm] | MIC (Candida albicans [10]) [µg/mL] | MIC (Aspergillus niger [11]) [µg/mL] | zone of inhibition at 250 µg/mL (Aspergillus clavatus [12]) [mm] | zone of inhibition at 250 µg/mL (Streptococcus pyogenes [13]) [mm] | EC50 (Human alphaherpesvirus 3 [14]) [µg/mL] | zone of inhibition at 250 µg/mL (Staphylococcus aureus [15]) [mm] | MIC (Aspergillus clavatus [16]) [µg/mL] | CC50 [17] [µg/mL] | zone of inhibition at 250 µg/mL (Pseudomonas aeruginosa [19]) [mm] | EC50 (Cytomegalovirus [21]) [µg/mL] | MIC (Streptococcus pyogenes [22]) [µg/mL] | EC50 (Cytomegalovirus [23]) [µg/mL] | EC50 (Human alphaherpesvirus 3 [24]) [µg/mL] | zone of inhibition at 250 µg/mL (Escherichia coli [25]) [mm] | other results |
| --- | --- | --- | --- | --- | --- | --- | --- | --- | --- | --- | --- | --- | --- | --- | --- | --- | --- | --- | --- | --- | --- |
| [O-]c1on[n+](-c2ccc(Cc3ccc(-[n+]4noc([O-])c4CN4CCCCC4)cc3)cc2)c1CN1CCCCC1 | 125 (≈ 236 µM) | 500 (≈ 942 µM) | ≥ 20 | 250 (≈ 471 µM) | 23 | 22 | 500 (≈ 942 µM) | 250 (≈ 471 µM) | 21 | 20 | > 4 | 18 | 500 (≈ 942 µM) | 12.6 (≈ 23.7 µM) | 20 | > 4 | 125 (≈ 236 µM) | 20 (≈ 37.7 µM) | > 4 | 16 | Ratio CC50/IC50 [2]: <1; CC50 [4]: 12.1 µg/mL (≈ 22.7 µM); Ratio CC50/IC50 [6]: <1; IC50 [18]: > 12 µg/mL; IC50 [20]: > 12 µg/mL |
| [O-]c1on[n+](-c2ccc(Cc3ccc(-[n+]4noc([O-])c4CN4CCN(c5ccccc5)CC4)cc3)cc2)c1CN1CCN(c2ccccc2)CC1 | 100 (≈ 146 µM) | 125 (≈ 183 µM) | ≥ 20 | 500 (≈ 730 µM) | 20 | 21 | 250 (≈ 365 µM) | 1000 (≈ 1460 µM) | 25 | 18 | > 4 | 17 | 250 (≈ 365 µM) | 12 (≈ 17.5 µM) | 22 | > 4 | 200 (≈ 292 µM) | > 20 | > 4 | 20 | Ratio CC50/IC50 [2]: <1; CC50 [4]: 10.3 µg/mL (≈ 15 µM); Ratio CC50/IC50 [6]: <1; IC50 [18]: > 10.3 µg/mL; IC50 [20]: > 10.3 µg/mL |
| CN1CCN(Cc2c([O-])on[n+]2-c2ccc(Cc3ccc(-[n+]4noc([O-])c4CN4CCN(C)C(c5ccccc5)C4)cc3)cc2)CC1c1ccccc1 (configuration not stated) | 250 (≈ 351 µM) | 100 (≈ 140 µM) | 100 | 500 (≈ 701 µM) | 20 | 18 | 500 (≈ 701 µM) | 1000 (≈ 1400 µM) | 23 | 18 | > 20 | 16 | 500 (≈ 701 µM) | 36.8 (≈ 51.6 µM) | 18 | > 20 | 250 (≈ 351 µM) | > 20 | > 20 | 21 | Ratio CC50/IC50 [2]: <1; CC50 [4]: 14 µg/mL (≈ 19.6 µM); Ratio CC50/IC50 [6]: <1; IC50 [18]: > 14 µg/mL; IC50 [20]: > 14 µg/mL |
| Cc1ccc(-[n+]2noc([O-])c2CN2CCN(c3cccc(Cl)c3Cl)CC2)cc1 | 1000 (≈ 2380 µM) | 125 (≈ 298 µM) | 20 | 500 (≈ 1190 µM) | 21 | 18 | 250 (≈ 596 µM) | 500 (≈ 1190 µM) | 23 | 19 | > 4 | 17 | 250 (≈ 596 µM) | 28.8 (≈ 68.7 µM) | 16 | 4 (≈ 9.54 µM) | 200 (≈ 477 µM) | > 4 | > 4 | 21 | Ratio CC50/IC50 [2]: <1; CC50 [4]: 31.7 µg/mL (≈ 75.6 µM); Ratio CC50/IC50 [6]: <1; IC50 [18]: > 31.7 µg/mL; IC50 [20]: > 31.7 µg/mL |
| COC1=CC(=O)C[C@@H](C)[C@]12Oc1c(Cl)c(OC)cc(OC)c1C2=O [GRISEOFULVIN] | – | – | – | – | 28 | 24 | 100 (≈ 283 µM) | 100 (≈ 283 µM) | 24 | – | – | – | 100 (≈ 283 µM) | – | – | – | – | – | – | – | – |
| Cc1ccc(-[n+]2noc([O-])c2CN2CCN(C3=Nc4ccccc4Sc4ccccc43)CC2)cc1 | 125 (≈ 258 µM) | 250 (≈ 517 µM) | ≥ 20 | 200 (≈ 414 µM) | 18 | 21 | 1000 (≈ 2070 µM) | 1000 (≈ 2070 µM) | 18 | 16 | > 20 | 19 | 1000 (≈ 2070 µM) | 14.8 (≈ 30.6 µM) | 21 | > 4 | 500 (≈ 1030 µM) | > 20 | > 20 | 19 | Ratio CC50/IC50 [2]: <1; CC50 [4]: 13.7 µg/mL (≈ 28.2 µM); Ratio CC50/IC50 [6]: <1; IC50 [18]: > 13.6 µg/mL; IC50 [20]: > 13.6 µg/mL |
| CCn1cc(C(=O)O)c(=O)c2cc(F)c(N3CCNCC3)cc21 [NORFLOXACIN] | 10 (≈ 31.3 µM) | 10 (≈ 31.3 µM) | – | 10 (≈ 31.3 µM) | – | – | – | – | – | 21 | – | 28 | – | – | 23 | – | 10 (≈ 31.3 µM) | – | – | 29 | – |
| O=C(O)c1cn(C2CC2)c2cc(N3CCNCC3)c(F)cc2c1=O [CIPROFLOXACIN] | – | 25 (≈ 75.4 µM) | – | 50 (≈ 151 µM) | – | – | – | – | – | 22 | – | 22 | – | – | 27 | – | 50 (≈ 151 µM) | – | – | 28 | – |
| Cc1ccc(-[n+]2cc([O-])on2)cc1 | – | – | 100 | – | – | – | – | – | – | – | > 20 | – | – | 33.1 (≈ 188 µM) | – | > 20 | – | > 20 | > 20 | – | – |
